Assay [1] concerns the target Cyclin-dependent kinase 2/cyclin E (Homo sapiens) (UniProt P24864+P24941+O96020). Kind of assay: Selectivity interaction (Upstate Kinase Profiler service (Millipore)) EUB0000056c CDK2. Type of assay: protein-complex assay. The note with it: at 1 µM.
The target of assay [2] is Tyrosine-protein kinase Fes/Fps (Homo sapiens) (UniProt P07332). Kind of assay: Selectivity interaction (KinomeScan (DiscoverX)) EUB0001079a FES. Conditions: at 1 µM.
Assay [3] addresses T1, Uncharacterized serine/threonine-protein kinase SBK3 (Homo sapiens) (UniProt P0C264).
T1 sequence (whole entry): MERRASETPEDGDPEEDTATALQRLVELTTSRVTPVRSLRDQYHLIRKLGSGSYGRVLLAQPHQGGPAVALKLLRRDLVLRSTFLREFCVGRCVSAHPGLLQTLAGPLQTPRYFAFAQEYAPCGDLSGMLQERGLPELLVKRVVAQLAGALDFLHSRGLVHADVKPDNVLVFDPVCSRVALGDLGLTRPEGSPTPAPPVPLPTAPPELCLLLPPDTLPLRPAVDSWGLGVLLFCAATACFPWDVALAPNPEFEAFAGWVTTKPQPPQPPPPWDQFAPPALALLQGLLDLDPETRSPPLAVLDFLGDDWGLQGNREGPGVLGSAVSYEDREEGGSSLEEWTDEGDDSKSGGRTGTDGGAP
The assay is described as follows: Selectivity interaction (KinomeScan (DiscoverX)) EUB0001079a SBK3. The note with it: at 1 µM.

In assay [4] the target is Protein kinase C gamma type (Homo sapiens) (UniProt P05129). The assay is described as follows: Selectivity interaction (Millipore kinase profiler) EUB0000124b PRKCG. The note with it: at 10 µM.
Assay [5] concerns the target Mitogen-activated protein kinase 4 (Homo sapiens) (UniProt P31152). Kind of assay: Selectivity interaction (KinomeScan (DiscoverX)) EUB0001049a MAPK4. Conditions: at 1 µM.
In assay [6] the target is T2, Mitogen-activated protein kinase kinase kinase 7 (Homo sapiens) (UniProt O43318).
T2 sequence (whole entry): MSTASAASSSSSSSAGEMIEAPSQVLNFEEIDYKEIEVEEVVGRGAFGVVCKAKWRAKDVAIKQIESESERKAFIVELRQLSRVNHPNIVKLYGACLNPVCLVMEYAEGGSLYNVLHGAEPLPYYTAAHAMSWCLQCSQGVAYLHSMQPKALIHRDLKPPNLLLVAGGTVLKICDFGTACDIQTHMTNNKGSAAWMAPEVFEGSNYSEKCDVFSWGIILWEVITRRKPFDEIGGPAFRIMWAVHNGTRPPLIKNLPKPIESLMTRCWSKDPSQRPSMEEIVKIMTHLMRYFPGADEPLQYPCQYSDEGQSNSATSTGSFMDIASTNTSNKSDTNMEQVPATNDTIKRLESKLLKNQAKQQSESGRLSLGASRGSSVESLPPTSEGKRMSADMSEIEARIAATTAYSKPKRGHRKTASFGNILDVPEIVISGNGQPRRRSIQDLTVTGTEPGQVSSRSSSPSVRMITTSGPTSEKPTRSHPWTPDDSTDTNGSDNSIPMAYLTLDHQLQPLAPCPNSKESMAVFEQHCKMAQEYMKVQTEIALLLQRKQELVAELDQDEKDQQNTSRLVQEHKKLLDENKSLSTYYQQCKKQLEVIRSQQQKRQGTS
The assay is described as follows: Selectivity interaction (KinomeScan (DiscoverX)) EUB0000655a MAP3K7. Conditions: at 10 µM.

Assay [7] deals with Transient receptor potential cation channel subfamily M member 6 (Homo sapiens) (UniProt Q9BX84). Kind of assay: Selectivity interaction (KinomeScan (DiscoverX)) EUB0000655a TRPM6. The note with it: at 10 µM.
The target in assay [8] is Epithelial discoidin domain-containing receptor 1 (Homo sapiens) (UniProt Q08345). The assay is described as follows: Selectivity interaction (KinomeScan (DiscoverX)) EUB0000045b DDR1.
In assay [9] the target is Tyrosine-protein kinase Lyn (Homo sapiens, UniProt P07948). Kind of assay: Selectivity interaction (KinomeScan (DiscoverX)) EUB0000666a LYN. The note with it: at 10 µM.
Assay [10] deals with Serine/threonine-protein kinase PLK2 (Homo sapiens, UniProt Q9NYY3). Kind of assay: Selectivity interaction (Kinase panel (Z-LYTE Assay)) EUB0001632a PLK2. Conditions: at 10 µM.
For assay [11], the system named is Serine/threonine-protein kinase B-raf (Homo sapiens), P15056 [V600E]. Kind of assay: (§1) Selectivity interaction (LanthaScreen Eu Kinase Binding Assay) EUB0001632a BRAF. Conditions: at 10 µM.
In assay [12] the target is Serine/threonine-protein kinase B-raf (Homo sapiens) (UniProt P15056). Described as §1. Conditions: at 10 µM.
The target in assay [13] is Tyrosine-protein kinase Lck (Homo sapiens, UniProt P06239). The assay is described as follows: Selectivity interaction (SelectScreen profiling (Invitrogen)) EUB0000607a LCK. The note with it: at 2 µM.
The target of assay [14] is T3, Serine/threonine-protein kinase Sgk2 (Homo sapiens) (UniProt Q9HBY8).
T3 sequence (whole entry): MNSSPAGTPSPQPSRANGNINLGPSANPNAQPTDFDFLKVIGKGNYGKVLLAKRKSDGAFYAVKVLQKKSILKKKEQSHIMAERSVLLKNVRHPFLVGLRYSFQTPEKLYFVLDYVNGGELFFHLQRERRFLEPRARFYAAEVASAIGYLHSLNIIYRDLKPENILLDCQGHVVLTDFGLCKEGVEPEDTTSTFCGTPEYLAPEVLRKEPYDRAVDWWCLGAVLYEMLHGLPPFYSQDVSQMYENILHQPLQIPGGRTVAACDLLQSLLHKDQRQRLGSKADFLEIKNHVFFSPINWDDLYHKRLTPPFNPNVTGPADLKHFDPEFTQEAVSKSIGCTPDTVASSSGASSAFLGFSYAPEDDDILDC
Kind of assay: Selectivity interaction (Kinase panel (Invitrogen)) EUB0000639a SGK2. The note with it: at 200 nM.

In assay [15] the target is Interleukin-1 receptor-associated kinase 1 (Homo sapiens) (UniProt P51617). The assay is described as follows: Selectivity interaction (Kinase panel (Invitrogen)) EUB0000639a IRAK1. The note with it: at 200 nM.
Assay [16] deals with Protein-tyrosine kinase 2-beta (Homo sapiens) (UniProt Q14289). The assay is described as follows: Selectivity interaction (ActivX KiNativ screen (kinase selectivity in THP-1 cell lysates)) EUB0000639a PTK2B. It counts as subcellular. The note with it: lysate, at 5 µM.
In assay [17] the target is T4, Aurora kinase C (Homo sapiens) (UniProt Q9UQB9).
T4 sequence (whole entry): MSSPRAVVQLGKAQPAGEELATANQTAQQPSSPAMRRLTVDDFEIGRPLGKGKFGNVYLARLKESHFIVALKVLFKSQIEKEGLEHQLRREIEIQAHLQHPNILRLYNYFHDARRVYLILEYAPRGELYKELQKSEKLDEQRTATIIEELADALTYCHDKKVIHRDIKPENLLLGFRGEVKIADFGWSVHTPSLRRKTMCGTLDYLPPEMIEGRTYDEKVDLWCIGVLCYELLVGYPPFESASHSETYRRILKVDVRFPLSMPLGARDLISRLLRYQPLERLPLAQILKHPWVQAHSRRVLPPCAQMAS
Kind of assay: Selectivity interaction (Kinase panel (Invitrogen)) EUB0000639a AURKC. The note with it: at 200 nM.

In assay [18] the target is Serine/threonine-protein kinase/endoribonuclease IRE1 (Homo sapiens) (UniProt O75460). Kind of assay: Selectivity interaction (KinomeScan (DiscoverX)) EUB0000229b ERN1. The note with it: at 10 µM.
Assay [19] addresses Calcium/calmodulin-dependent protein kinase type II subunit alpha (Homo sapiens, UniProt Q9UQM7). Kind of assay: Selectivity interaction (Kinase panel (literature)) EUB0001199aCl CAMK2A. Conditions: at 1 µM.

The structures appear in SMILES notation.

Sequence of Epithelial discoidin domain-containing receptor 1 (Homo sapiens) (Q08345 whole entry, the tested form may be a part): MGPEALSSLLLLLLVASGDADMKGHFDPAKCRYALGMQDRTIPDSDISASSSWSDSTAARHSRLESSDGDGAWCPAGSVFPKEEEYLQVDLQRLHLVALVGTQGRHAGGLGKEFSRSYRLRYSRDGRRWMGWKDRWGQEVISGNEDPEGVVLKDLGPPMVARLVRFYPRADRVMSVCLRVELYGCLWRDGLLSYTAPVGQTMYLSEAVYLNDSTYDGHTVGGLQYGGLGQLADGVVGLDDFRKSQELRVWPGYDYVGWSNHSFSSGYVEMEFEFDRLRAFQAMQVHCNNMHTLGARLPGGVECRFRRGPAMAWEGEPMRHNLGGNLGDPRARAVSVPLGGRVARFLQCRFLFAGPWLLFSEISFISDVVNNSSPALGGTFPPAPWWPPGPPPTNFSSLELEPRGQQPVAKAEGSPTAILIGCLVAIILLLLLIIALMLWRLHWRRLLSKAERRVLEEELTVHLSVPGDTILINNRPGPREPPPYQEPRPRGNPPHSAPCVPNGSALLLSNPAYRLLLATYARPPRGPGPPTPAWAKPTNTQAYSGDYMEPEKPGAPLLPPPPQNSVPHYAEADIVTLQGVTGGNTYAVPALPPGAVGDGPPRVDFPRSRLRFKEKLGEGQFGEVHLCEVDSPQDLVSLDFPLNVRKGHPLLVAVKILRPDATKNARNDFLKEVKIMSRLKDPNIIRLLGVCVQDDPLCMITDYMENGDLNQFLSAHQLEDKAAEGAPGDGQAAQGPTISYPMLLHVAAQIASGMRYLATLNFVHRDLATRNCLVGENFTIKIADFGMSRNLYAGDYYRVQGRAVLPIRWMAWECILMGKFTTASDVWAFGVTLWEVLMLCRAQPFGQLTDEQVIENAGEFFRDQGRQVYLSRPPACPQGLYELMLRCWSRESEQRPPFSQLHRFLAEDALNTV
Sequence of Tyrosine-protein kinase Fes/Fps (Homo sapiens) (P07332 whole entry): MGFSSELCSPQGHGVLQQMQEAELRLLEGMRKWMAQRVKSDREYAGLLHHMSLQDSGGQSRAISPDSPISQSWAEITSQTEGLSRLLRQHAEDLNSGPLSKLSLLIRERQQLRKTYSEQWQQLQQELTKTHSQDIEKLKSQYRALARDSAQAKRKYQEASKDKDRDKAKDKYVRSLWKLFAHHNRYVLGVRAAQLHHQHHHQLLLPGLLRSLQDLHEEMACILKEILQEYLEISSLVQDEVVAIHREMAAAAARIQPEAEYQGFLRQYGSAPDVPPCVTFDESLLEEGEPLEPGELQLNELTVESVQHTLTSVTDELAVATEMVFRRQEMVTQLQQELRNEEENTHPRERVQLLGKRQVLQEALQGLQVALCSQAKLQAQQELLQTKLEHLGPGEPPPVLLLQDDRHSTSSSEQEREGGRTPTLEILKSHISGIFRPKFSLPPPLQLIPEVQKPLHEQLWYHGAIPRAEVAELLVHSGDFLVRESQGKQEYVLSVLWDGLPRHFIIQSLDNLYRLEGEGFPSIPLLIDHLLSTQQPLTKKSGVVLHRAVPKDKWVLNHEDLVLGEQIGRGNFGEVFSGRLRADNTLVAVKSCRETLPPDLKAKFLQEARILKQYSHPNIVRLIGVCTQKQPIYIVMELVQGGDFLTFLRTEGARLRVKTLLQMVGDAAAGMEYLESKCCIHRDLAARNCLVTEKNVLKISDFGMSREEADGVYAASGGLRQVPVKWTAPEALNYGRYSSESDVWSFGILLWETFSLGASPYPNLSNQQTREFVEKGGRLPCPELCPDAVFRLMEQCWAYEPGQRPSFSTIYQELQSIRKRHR
Sequence of Interleukin-1 receptor-associated kinase 1 (Homo sapiens) (P51617 whole entry, looked up): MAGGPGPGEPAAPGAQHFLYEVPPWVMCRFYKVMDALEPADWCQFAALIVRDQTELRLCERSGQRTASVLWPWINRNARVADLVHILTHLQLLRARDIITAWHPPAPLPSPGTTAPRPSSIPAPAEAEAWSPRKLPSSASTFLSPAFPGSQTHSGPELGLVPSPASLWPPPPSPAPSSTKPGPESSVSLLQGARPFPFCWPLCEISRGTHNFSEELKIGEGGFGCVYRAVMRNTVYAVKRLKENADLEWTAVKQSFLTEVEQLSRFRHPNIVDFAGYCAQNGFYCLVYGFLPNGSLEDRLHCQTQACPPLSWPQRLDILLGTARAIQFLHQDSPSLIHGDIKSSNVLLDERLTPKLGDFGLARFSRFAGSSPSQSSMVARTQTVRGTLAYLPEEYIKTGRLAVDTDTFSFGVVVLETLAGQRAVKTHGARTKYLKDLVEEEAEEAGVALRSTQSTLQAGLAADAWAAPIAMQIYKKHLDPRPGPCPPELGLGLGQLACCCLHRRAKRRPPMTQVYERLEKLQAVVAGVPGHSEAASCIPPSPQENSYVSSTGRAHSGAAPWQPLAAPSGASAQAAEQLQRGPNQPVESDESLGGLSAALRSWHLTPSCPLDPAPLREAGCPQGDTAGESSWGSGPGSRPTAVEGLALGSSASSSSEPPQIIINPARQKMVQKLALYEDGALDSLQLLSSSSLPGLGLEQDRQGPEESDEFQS
Sequence of Serine/threonine-protein kinase/endoribonuclease IRE1 (Homo sapiens) (O75460 19-977 limits assumed): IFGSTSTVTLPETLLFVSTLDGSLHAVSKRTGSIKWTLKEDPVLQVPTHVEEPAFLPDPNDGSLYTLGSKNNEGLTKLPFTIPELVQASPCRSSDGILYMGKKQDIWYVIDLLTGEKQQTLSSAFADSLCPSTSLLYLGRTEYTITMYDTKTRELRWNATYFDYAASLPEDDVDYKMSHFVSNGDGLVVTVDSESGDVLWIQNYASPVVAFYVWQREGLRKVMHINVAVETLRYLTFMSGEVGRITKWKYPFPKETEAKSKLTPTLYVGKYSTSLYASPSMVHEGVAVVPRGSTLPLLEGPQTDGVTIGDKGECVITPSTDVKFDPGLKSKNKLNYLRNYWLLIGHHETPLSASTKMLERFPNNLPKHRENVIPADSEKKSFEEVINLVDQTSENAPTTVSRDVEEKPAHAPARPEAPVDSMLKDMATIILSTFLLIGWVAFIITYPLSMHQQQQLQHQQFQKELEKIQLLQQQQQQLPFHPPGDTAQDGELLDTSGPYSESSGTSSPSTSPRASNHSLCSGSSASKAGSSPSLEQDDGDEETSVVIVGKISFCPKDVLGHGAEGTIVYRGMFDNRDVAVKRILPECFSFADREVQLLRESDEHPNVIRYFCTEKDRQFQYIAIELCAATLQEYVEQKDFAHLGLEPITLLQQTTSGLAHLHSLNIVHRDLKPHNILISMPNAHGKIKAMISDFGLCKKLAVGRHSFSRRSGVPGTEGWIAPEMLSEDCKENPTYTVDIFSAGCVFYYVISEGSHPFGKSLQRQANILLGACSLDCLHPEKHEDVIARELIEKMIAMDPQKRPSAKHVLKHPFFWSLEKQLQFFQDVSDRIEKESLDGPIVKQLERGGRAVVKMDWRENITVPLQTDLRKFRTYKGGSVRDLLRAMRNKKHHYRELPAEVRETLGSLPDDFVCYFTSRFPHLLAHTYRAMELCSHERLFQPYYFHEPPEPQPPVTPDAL
Sequence of Serine/threonine-protein kinase B-raf (Homo sapiens) (P15056 whole entry): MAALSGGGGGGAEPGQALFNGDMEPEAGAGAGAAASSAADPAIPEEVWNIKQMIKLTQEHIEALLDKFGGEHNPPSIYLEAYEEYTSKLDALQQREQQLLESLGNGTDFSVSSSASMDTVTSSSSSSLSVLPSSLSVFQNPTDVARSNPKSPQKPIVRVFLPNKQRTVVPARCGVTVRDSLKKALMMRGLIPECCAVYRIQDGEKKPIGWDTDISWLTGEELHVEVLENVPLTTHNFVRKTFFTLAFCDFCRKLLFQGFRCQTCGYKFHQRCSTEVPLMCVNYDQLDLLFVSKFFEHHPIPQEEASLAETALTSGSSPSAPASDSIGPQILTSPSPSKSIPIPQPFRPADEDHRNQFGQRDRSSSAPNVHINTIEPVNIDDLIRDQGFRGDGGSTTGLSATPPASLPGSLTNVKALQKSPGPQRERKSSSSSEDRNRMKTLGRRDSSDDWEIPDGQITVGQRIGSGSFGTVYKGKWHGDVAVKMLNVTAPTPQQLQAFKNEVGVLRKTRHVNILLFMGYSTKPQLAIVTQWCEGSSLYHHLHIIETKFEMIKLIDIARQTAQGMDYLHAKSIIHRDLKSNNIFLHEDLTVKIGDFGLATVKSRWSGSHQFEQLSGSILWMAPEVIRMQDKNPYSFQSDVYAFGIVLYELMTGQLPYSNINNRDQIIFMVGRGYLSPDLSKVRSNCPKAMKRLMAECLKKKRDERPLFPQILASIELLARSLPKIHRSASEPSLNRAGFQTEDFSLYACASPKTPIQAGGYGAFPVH
Sequence of Serine/threonine-protein kinase B-raf (Homo sapiens), P15056 [V600E] (P15056 whole entry V600E): as the sequence (P15056 whole entry) above, with V600E counted along it
Sequence of Tyrosine-protein kinase Lck (P06239 2-509 limits assumed): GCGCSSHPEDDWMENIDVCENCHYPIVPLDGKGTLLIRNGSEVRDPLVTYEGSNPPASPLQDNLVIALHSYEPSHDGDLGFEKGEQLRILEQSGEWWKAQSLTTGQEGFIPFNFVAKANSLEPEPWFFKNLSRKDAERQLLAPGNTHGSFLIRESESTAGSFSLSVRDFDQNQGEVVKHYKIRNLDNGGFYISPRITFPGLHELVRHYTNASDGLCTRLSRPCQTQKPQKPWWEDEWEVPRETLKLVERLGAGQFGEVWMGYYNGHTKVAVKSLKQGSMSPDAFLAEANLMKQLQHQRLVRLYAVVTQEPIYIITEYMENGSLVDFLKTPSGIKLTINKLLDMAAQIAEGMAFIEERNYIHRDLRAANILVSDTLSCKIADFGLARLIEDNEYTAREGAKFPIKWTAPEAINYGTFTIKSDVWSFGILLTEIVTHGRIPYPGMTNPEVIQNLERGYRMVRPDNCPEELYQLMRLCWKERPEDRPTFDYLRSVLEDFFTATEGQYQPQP

`Cc1ccc(-c2ccc3c(ccc4sc5c(c43)NC[C@@H](C)NC5=O)n2)cn1` had a % of inhibition in assay [1] of 35%. Turning to `Nc1cnc(N2CCc3cc(S(=O)(=O)Nc4c(F)cc(Cl)cc4F)cc(N4CCCC4=O)c32)nc1` [TP-020n], the % of control in assay [2] and in assay [3] was 100% each time.

With `CC(=O)Nc1cccc(-n2c(=O)n(C3CC3)c(=O)c3c(Nc4ccc(I)cc4F)n(C)c(=O)c(C)c32)c1`, the % of control in [4] was determined as 107%.

As to `COc1cc(Nc2nc(C)cc(-c3cnn4nc(OC)ccc34)n2)cc(C(F)(F)F)c1`, the % of control in assay [5] turned out to be 100%. On to `CN(C)CCOc1ccc(-c2nc(-c3ccncc3)c(-c3ccc4c(c3)CC/C4=N\O)[nH]2)cc1`, for which the % of control in assay [6] is 89%; in assay [7] it was 100%. Consider `C=CC(=O)Nc1cc(-n2c(=O)ccc3cnc4ccc(-c5ccc(NS(C)(=O)=O)cc5)cc4c32)ccc1C`, for which the % of control in [8] (at 1 µM) is 100%; in assay [8] (at 10 µM), 75%. For the compound `O=C(NOC[C@H](O)CO)c1ccc(F)c(F)c1Nc1ccc(I)cc1F`, the % of control in assay [9] came to 72%. For the compound `Cn1cc(-n2cnc3c(NCc4nc5cc(Cl)c(Cl)cc5[nH]4)nc(N4CCOCC4)nc32)cn1`, the % of control in [10] is -0.658%. For the same compound, the results for the % of inhibition in [11] and in [12] were 9.14% and 5.68%, respectively.

As to `CNC(=O)Nc1ccc(-c2nc(N3CC4CCC(C3)O4)c3cnn(C4CCC5(CC4)OCCO5)c3n2)cc1`, the % of inhibition in [13] was 10%. As for `CC[C@@H]1[C@H](F)C(=O)N[C@@H]1COc1nccc2cc(C(N)=O)c(OC)cc12` [ZIMLOVISERTIB], the % of inhibition worked out at 5.25% in [14], 91.4% in [15], 11.6% in assay [16] and 2.66% in assay [17].

In the case of `COc1cc(N(C)c2ccnc3ccc(C(F)(F)F)cc23)cc(OC)c1OC`, in assay [18], the % binding was determined as 70%. For the compound `CN1Cc2nccc(-c3cn(C)nc3-c3ccc(F)cc3)c2C1=O`, the % of inhibition in assay [19] amounted to 10%.
